The values below come from the supplement of paper PMC10307832.

For the first test, the system named is Calu-6. In words: relative viability (nuclei count vs DMSO), 5 days (fraction); higher = more cells survive. The note with it: first compound 0.2 µM. An outline of the steps:
(§1)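 Five library-drug doses in √10 steps were combined with a fixed anchor-drug dose, or a single drug was given alone, by pin tool to lung cancer cell lines in 1536-well plates the day after seeding. Nuclei were stained and counted after 5 days. Relative viability is the nuclei count in treated wells over that in vehicle wells, taken as the median of duplicate plates.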
In turn, `COCC1(CO)C(=O)C2CCN1CC2` (configuration not stated) [PRIMA-1MET] + CC(C)C[C@H](NC(=O)[C@H](Cc1ccccc1)NC(=O)c1cnccn1)B(O)O [Bortezomib] (partner 0.002 µM) yielded a relative viability of 1.11.
Same read-out and setting: the figure for `COCC1(CO)C(=O)C2CCN1CC2` (configuration not stated) [PRIMA-1MET] + Cc1nc(NC(=O)N2CCC[C@H]2C(N)=O)sc1-c1ccnc(C(C)(C)C(F)(F)F)c1 [Alpelisib] (partner 2 µM) is 1.02.

The same test, now with this note: first compound 0.6325 µM.
With `COCC1(CO)C(=O)C2CCN1CC2` (configuration not stated) [PRIMA-1MET] + CS(=O)(=O)CCNCc1ccc(-c2ccc3ncnc(Nc4ccc(OCc5cccc(F)c5)c(Cl)c4)c3c2)o1 [Lapatinib] (partner 2 µM), the relative viability stood at 1.08.
`COCC1(CO)C(=O)C2CCN1CC2` (configuration not stated) [PRIMA-1MET] + C[C@]1(O)C[C@@H](c2nc(-c3ccc4ccc(-c5ccccc5)nc4c3)c3c(N)nccn32)C1 [Linsitinib] (partner 1 µM) had a relative viability of 0.885.
Still for that read-out and setting: the same measure for `COCC1(CO)C(=O)C2CCN1CC2` (configuration not stated) [PRIMA-1MET] + CC(C)C[C@H](NC(=O)[C@H](Cc1ccccc1)NC(=O)c1cnccn1)B(O)O [Bortezomib] (partner 0.002 µM): 0.95; for `COCC1(CO)C(=O)C2CCN1CC2` (configuration not stated) [PRIMA-1MET] + Cc1nc(NC(=O)N2CCC[C@H]2C(N)=O)sc1-c1ccnc(C(C)(C)C(F)(F)F)c1 [Alpelisib] (partner 2 µM): 0.941.

Still in this test, the particulars now being: first compound 2 µM.
`COCC1(CO)C(=O)C2CCN1CC2` (configuration not stated) [PRIMA-1MET] + CS(=O)(=O)CCNCc1ccc(-c2ccc3ncnc(Nc4ccc(OCc5cccc(F)c5)c(Cl)c4)c3c2)o1 [Lapatinib] (partner 2 µM): the relative viability is 1.11.
The same measure, in the same setting: the figure for `COCC1(CO)C(=O)C2CCN1CC2` (configuration not stated) [PRIMA-1MET] + C[C@]1(O)C[C@@H](c2nc(-c3ccc4ccc(-c5ccccc5)nc4c3)c3c(N)nccn32)C1 [Linsitinib] (partner 1 µM) is 0.732; for `COCC1(CO)C(=O)C2CCN1CC2` (configuration not stated) [PRIMA-1MET] + CC(C)C[C@H](NC(=O)[C@H](Cc1ccccc1)NC(=O)c1cnccn1)B(O)O [Bortezomib] (partner 0.002 µM) it is 1.07.
The same measure, in the same setting: the same measure for `COCC1(CO)C(=O)C2CCN1CC2` (configuration not stated) [PRIMA-1MET] + Cc1nc(NC(=O)N2CCC[C@H]2C(N)=O)sc1-c1ccnc(C(C)(C)C(F)(F)F)c1 [Alpelisib] (partner 2 µM): 0.859.

The same test, now with this note: first compound 6.325 µM.
Consider `COCC1(CO)C(=O)C2CCN1CC2` (configuration not stated) [PRIMA-1MET] + CS(=O)(=O)CCNCc1ccc(-c2ccc3ncnc(Nc4ccc(OCc5cccc(F)c5)c(Cl)c4)c3c2)o1 [Lapatinib] (partner 2 µM), for which the relative viability was 1.01.
Same read-out and setting: the same measure for `COCC1(CO)C(=O)C2CCN1CC2` (configuration not stated) [PRIMA-1MET] + C[C@]1(O)C[C@@H](c2nc(-c3ccc4ccc(-c5ccccc5)nc4c3)c3c(N)nccn32)C1 [Linsitinib] (partner 1 µM): 0.957.
Still for that read-out and setting: the figure for `COCC1(CO)C(=O)C2CCN1CC2` (configuration not stated) [PRIMA-1MET] + CC(C)C[C@H](NC(=O)[C@H](Cc1ccccc1)NC(=O)c1cnccn1)B(O)O [Bortezomib] (partner 0.002 µM) is 1.02; for `COCC1(CO)C(=O)C2CCN1CC2` (configuration not stated) [PRIMA-1MET] + Cc1nc(NC(=O)N2CCC[C@H]2C(N)=O)sc1-c1ccnc(C(C)(C)C(F)(F)F)c1 [Alpelisib] (partner 2 µM) it is 1.

The same test, now with this note: first compound 20 µM.
As to `COCC1(CO)C(=O)C2CCN1CC2` (configuration not stated) [PRIMA-1MET] + CS(=O)(=O)CCNCc1ccc(-c2ccc3ncnc(Nc4ccc(OCc5cccc(F)c5)c(Cl)c4)c3c2)o1 [Lapatinib] (partner 2 µM), the relative viability is 0.847.
For the compound `COCC1(CO)C(=O)C2CCN1CC2` (configuration not stated) [PRIMA-1MET] + C[C@]1(O)C[C@@H](c2nc(-c3ccc4ccc(-c5ccccc5)nc4c3)c3c(N)nccn32)C1 [Linsitinib] (partner 1 µM), the relative viability worked out at 0.687.
The same measure, in the same setting: the same measure for `COCC1(CO)C(=O)C2CCN1CC2` (configuration not stated) [PRIMA-1MET] + CC(C)C[C@H](NC(=O)[C@H](Cc1ccccc1)NC(=O)c1cnccn1)B(O)O [Bortezomib] (partner 0.002 µM): 0.463; for `COCC1(CO)C(=O)C2CCN1CC2` (configuration not stated) [PRIMA-1MET] + Cc1nc(NC(=O)N2CCC[C@H]2C(N)=O)sc1-c1ccnc(C(C)(C)C(F)(F)F)c1 [Alpelisib] (partner 2 µM): 0.856.

A further test has as its system NCI-H1299. Described as above. As to conditions: first compound 0.2 µM. An outline of the steps:
as §1
For the compound `COCC1(CO)C(=O)C2CCN1CC2` (configuration not stated) [PRIMA-1MET] + CS(=O)(=O)CCNCc1ccc(-c2ccc3ncnc(Nc4ccc(OCc5cccc(F)c5)c(Cl)c4)c3c2)o1 [Lapatinib] (partner 2 µM), the relative viability worked out at 0.977.
Same read-out and setting: the same measure for `COCC1(CO)C(=O)C2CCN1CC2` (configuration not stated) [PRIMA-1MET] + C[C@]1(O)C[C@@H](c2nc(-c3ccc4ccc(-c5ccccc5)nc4c3)c3c(N)nccn32)C1 [Linsitinib] (partner 1 µM): 1.15; for `COCC1(CO)C(=O)C2CCN1CC2` (configuration not stated) [PRIMA-1MET] + CC(C)C[C@H](NC(=O)[C@H](Cc1ccccc1)NC(=O)c1cnccn1)B(O)O [Bortezomib] (partner 0.002 µM): 1.06; for `COCC1(CO)C(=O)C2CCN1CC2` (configuration not stated) [PRIMA-1MET] + Cc1nc(NC(=O)N2CCC[C@H]2C(N)=O)sc1-c1ccnc(C(C)(C)C(F)(F)F)c1 [Alpelisib] (partner 2 µM): 1.07.

The test is the same for the next values; noted with them: first compound 0.6325 µM.
`COCC1(CO)C(=O)C2CCN1CC2` (configuration not stated) [PRIMA-1MET] + CS(=O)(=O)CCNCc1ccc(-c2ccc3ncnc(Nc4ccc(OCc5cccc(F)c5)c(Cl)c4)c3c2)o1 [Lapatinib] (partner 2 µM): the relative viability worked out at 0.996.
Turning to `COCC1(CO)C(=O)C2CCN1CC2` (configuration not stated) [PRIMA-1MET] + C[C@]1(O)C[C@@H](c2nc(-c3ccc4ccc(-c5ccccc5)nc4c3)c3c(N)nccn32)C1 [Linsitinib] (partner 1 µM), the relative viability was determined as 0.852.
Take `COCC1(CO)C(=O)C2CCN1CC2` (configuration not stated) [PRIMA-1MET] + CC(C)C[C@H](NC(=O)[C@H](Cc1ccccc1)NC(=O)c1cnccn1)B(O)O [Bortezomib] (partner 0.002 µM): the relative viability came out at 1.02.
Regarding `COCC1(CO)C(=O)C2CCN1CC2` (configuration not stated) [PRIMA-1MET] + Cc1nc(NC(=O)N2CCC[C@H]2C(N)=O)sc1-c1ccnc(C(C)(C)C(F)(F)F)c1 [Alpelisib] (partner 2 µM), the relative viability is 1.08.

Staying with this test, now noted: first compound 2 µM.
Consider `COCC1(CO)C(=O)C2CCN1CC2` (configuration not stated) [PRIMA-1MET] + CS(=O)(=O)CCNCc1ccc(-c2ccc3ncnc(Nc4ccc(OCc5cccc(F)c5)c(Cl)c4)c3c2)o1 [Lapatinib] (partner 2 µM), for which the relative viability is 0.969.
